ChEMBL document CHEMBL4425099, “Use of Osmotic Pumps to Establish the Pharmacokinetic-Pharmacodynamic Relationship and Define Desirable Human Performance Characteristics for Aggrecanase Inhibitors” (J Med Chem, 2016)
Calls of active or inactive are those of the source. The calls are words filed in the database; no cut-off is given here.

Columns and labels:
Rattus norvegicus [1] = assay: Reduction in ADAMTS-4/ADAMTS-5 mediated aggrecan cleavage products in Lewis rat model of MIA assessed as aggrecanase-cleaved fragments at 30 mg/kg, po bid administered post 3 days MIA induction measured after 4 hrs of last dosage on day 7 by NITEGE sandwich ELISA; type: functional
Rattus norvegicus [2] = assay: Reduction in ADAMTS-4/ADAMTS-5 mediated aggrecan cleavage products in Lewis rat model of MIA assessed as aggrecanase-cleaved fragments at 30 mg/kg, po qd administered post 3 days MIA induction measured after 4 hrs of last dosage on day 7 by NITEGE sandwich ELISA; type: functional
[3] = Plasma concentration in Lewis rat model of MIA at 10 mg/kg, po bid administered post 3 days MIA induction measured after 4 hrs of last dosage on day 7; type: ADME, organism-based
[4] = Plasma concentration in Lewis rat model of MIA at 30 mg/kg, po bid administered post 3 days MIA induction measured after 4 hrs of last dosage on day 7; type: ADME, organism-based
[5] = Plasma concentration in Lewis rat at 10 mg/kg, po bid measured after 8 hrs; type: ADME, organism-based
[6] = Cmax in Lewis rat plasma at 10 mg/kg, po; type: ADME, organism-based; design: dose 10 mg/kg, route oral
[7] = AUC in Lewis rat at 10 mg/kg, po; type: ADME, organism-based; conditions: in vivo

In the case of `C[C@@]1(O)CCCN(S(=O)(=O)c2ccc(OCc3ccc(F)cc3Cl)cc2)[C@H]1C(=O)NO`, the inhibition (Rattus norvegicus [1]) is reported as “inactive” and the inhibition (Rattus norvegicus [2]) is reported as “inactive”.

`O=C1NC(=O)[C@](CNC(=O)c2cc3cc(Cl)ccc3o2)(c2nccs2)N1` showed a concentration at 4 h [3] of 30 µM, a concentration at 4 h [4] of 90 µM and a concentration at 8 h [5] of 2.2 µM. For the same compound, the Cmax [6] was 33 µM and the AUC [7] was 130 µM·h.
